The values that follow come from patent publication US8288423B2, “FXa inhibitors with cyclic amidines as P4 subunit, processes for their preparations, and pharmaceutical compositions and derivatives thereof” (Legochem Bioscience Ltd., priority 2007, dated 2012).

The structures appear in SMILES notation.

The target of test [1] is T1, factor Xa (Homo sapiens, UniProt P00742).
T1 construct: purchased Enzyme Research Laboratories
Briefly: Inhibiting activity of factor Xa inhibitor (chromogenic substrate S-2765). The note with it: calculated from IC50 by Equation 1, Km 125 μM; S-2765 substrate, pH 7.8, 37° C.; read-out: Ki (nM), factor Xa inhibition constant. It is filed as biochemical. The protocol: Relative rate of hydrolysis (as compared to control group without inhibition) was plotted versus logarithm of the concentration of the oxazolidinone derivative with a cyclic amidine represented by Chemical Formula (1) according to the invention, to obtain the concentration of the inhibitor for 50% decrease in the rate of hydrolysis of the substrate.
The inhibition constant can be obtained by spectrophotometry whereby the color development is determined as a function of time, after being reacted with a specific substrate which develops color upon hydrolysis caused by action of factor Xa.
For the inhibitor solution, the inhibitor compound according to the present invention was diluted with dimethylsulfoxide (DMSO) in 10 mM, and then further diluted with third-distilled water (finally 10% DMSO solution), and the solution (10 μL) was added to each well. […] The substrate solution (20 μL) thus prepared was added to each well.
Kinetic analysis of the reaction was performed by a kinetic plate reader (Molecular Devices, Spectramax 190) at 37° C. for 20 minutes.
Relative rate of hydrolysis (compared to control group without inhibition) versus logarithm of the oxazolidinone derivative with a cyclic amidine group (Chemical Formula I) was plotted to obtain the concentration of the inhibitor to decrease the rate of hydrolysis of the substrate by 50%. GraFit (version 5.0.12) program for statistical process purchased from Erithacus Software was employed.
When inhibition constant Ki is calculated, it can be calculated according to Equation (1).

The subject of test [2] is Citrated plasma. Put plainly: Measurement of PT (prothrombin time) in citrated plasma. The note with it: STA-Neoplastine, 37° C., unit not given (2×PT value). It is filed as biochemical. The protocol: The effect of oxazolidinone derivatives with cyclic amidines represented by Chemical Formula (1) according to the invention on blood coagulation was compared by measuring PT (prothrombin time) and aPTT (activated Partial Thromboplastin Time). The procedure of measurement is described below. Citrated plasma was purchased from Daejeon-Chungnam Blood Institute (located at Daejeon, Korea). A compound solution (5 μL) according to the invention (in a various concentration gradient, 5% DMSO solution) was added to the plasma ([…]), and the reaction was carried out at 37° C. for 5 minutes. STA-Neoplastine (Diagnostica Stago) (100 μL) was then added thereto, and the duration for plasma coagulation was measured. The duration for plasma coagulation is determined as the point when the absorbance at 340 nm reaches 0.1.

For test [3], the system named is thrombus formation. Briefly: % inhibition against thrombus formation, arteriovenous shunt model in white rats. It is filed as in vivo, white rats (male Sprague Dawley). The note with it: orally administered 1 hour before opening of the shunt; 15 minutes circulation; versus control group. Also noted: concentration or dose not given beside the values. The method, then:
3) Determination of % Inhibition Against Thrombus Formation by Means of Arteriovenous Shunt Model ([…]) in White Rats Antithrombotic effect of the compounds according to the present invention was evaluated by using arteriovenous shunt model in white rats. The animals used were male Sprague Dawleys with the body weight of 200-250 g. For one day before the experiment, the animals were fasted. Five to six animals were used for each test group. The compound of Example was orally administered 1 hour before opening of the shunt. The rats were anesthetized by abdominal administration of Rompun (Bay HealthCare) and Chloral hydrate or urethane in an amount of 12 and 50 mg per kg of the body weight. Into the left carotid artery and right jugular vein of the white rat, a polyethylene(PE)-60 tubing filled with physiological saline was inserted and secured. Both ends of individual PE tubing were connected to a silicone tubing having a length of 5 cm in which a cotton thread have been incorporated diagonally, and the shunt was open to provide circulation for 15 minutes. The shunt was then compressed by using jaws, and the cotton thread was carefully removed and the thrombus generated was weighed. The % inhibition of thrombus formation was calculated by using the weight of thrombus obtained from white rats of the control group to which a solution of oral administration was administered.

The subject of test [4] is plasma. Briefly: Measurement of aPTT (activated partial thromboplastin time) in plasma. It is filed as biochemical. Also noted: unit not given here. The note with it: STA-PTT, CaCl2, 37° C., unit not given. The protocol:
The effect of oxazolidinone derivatives with cyclic amidines represented by Chemical Formula (1) according to the invention on blood coagulation was compared by measuring PT (prothrombin time) and aPTT (activated Partial Thromboplastin Time). The procedure of measurement is described below. A solution (5 μL) of the oxazolidinone derivative with cyclic amidine group represented by Chemical Formula (1) according to the invention (in a various concentration gradient, 5% DMSO solution) was added to the plasma ([…]), and the reaction was carried out at 37° C. for 2 minutes. STA-PTT (Diagnostica Stago) (50 μL) was then added thereto. After the reaction at 37° C. for additional 5 minutes, 25 mM CaCl2 (50 μL) was added thereto, and the duration for plasma coagulation was measured. The duration for plasma coagulation was determined as the point when the absorbance at 340 nm reaches 0.1.

T1 sequence (P00742 235-488 limits assumed): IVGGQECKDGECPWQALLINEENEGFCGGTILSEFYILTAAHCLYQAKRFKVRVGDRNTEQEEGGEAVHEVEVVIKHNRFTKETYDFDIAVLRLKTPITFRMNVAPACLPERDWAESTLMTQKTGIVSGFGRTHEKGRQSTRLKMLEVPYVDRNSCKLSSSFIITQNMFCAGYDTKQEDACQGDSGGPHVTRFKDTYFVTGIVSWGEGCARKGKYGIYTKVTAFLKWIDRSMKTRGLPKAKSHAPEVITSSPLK
T1 sequence (P00742 41-179 partner limits assumed): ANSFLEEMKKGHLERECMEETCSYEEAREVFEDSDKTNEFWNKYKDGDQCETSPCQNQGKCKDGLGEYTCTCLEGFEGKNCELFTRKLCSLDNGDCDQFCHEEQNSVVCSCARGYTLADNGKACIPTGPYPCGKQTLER

As for `C=C(C)C1=NCCN1c1ccc(N2C[C@H](CNC(=O)c3ccc(Cl)s3)OC2=O)cc1` [Compound 120], the Ki (commonly a measure of affinity in units of concentration, obtained from inhibition or displacement) in test [1] was 27.9 nM. In addition, the PT in test [2] stood at 0.31. For the same compound, the “% Inhibition (of thrombus formation)” value in test [3] is recorded as 37%.
As to `CCN1CCN=C1c1ccc(N2C[C@H](CNC(=O)c3ccc(Cl)s3)OC2=O)cc1F` [Compound 110], the Ki in test [1] is 4.4 nM. In test [2], this compound yielded a PT of 0.03. In addition, the APTT in test [4] came out at 0.19. Moreover, the “% Inhibition (of thrombus formation)” value in test [3] is 38%.
With `O=C(NC[C@H]1CN(c2ccc(N3CCN=C3c3ccncc3)cc2)C(=O)O1)c1ccc(Cl)s1` [Compound 126], in test [1], the Ki is 12.8 nM. The PT in test [2] is recorded as 0.16. Also, the “% Inhibition (of thrombus formation)” value in test [3] came out at 22%.
As to `CN1CCCN=C1c1ccc(N2C[C@H](CNC(=O)c3ccc(Cl)s3)OC2=O)cc1Cl` [Compound 113, 5-chloro-thiophene-2-carboxylic acid {(S)-3-[3-chloro-4-(1-methyl-1,4,5,6-tetrahydropyrimidin-2-yl)-phenyl]-2-oxo-oxazolidin-5-ylmethyl}-amide], in test [1], the Ki is 9.19 nM. Besides, the PT in test [2] stood at 0.11. In test [4], this compound registered an APTT of 0.35. In test [3], the “% Inhibition (of thrombus formation)” value came to 53%.
On to `CC(C)CC1=NCCN1c1ccc(N2C[C@H](CNC(=O)c3ccc(Cl)s3)OC2=O)cc1` [Compound 119], for which the Ki in test [1] was 3.7 nM. The compound further had a PT in test [2] of 0.03. Moreover, the “% Inhibition (of thrombus formation)” value in test [3] is on record as 4%.
Taken in the same sequence, the figures for `Cc1ccc(C2=NCCN2c2ccc(N3C[C@H](CNC(=O)c4ccc(Cl)s4)OC3=O)cc2)cc1` [Compound 129] were 0.92 nM, 0.30 and 0%.
The like results for `COC(=O)C(C)(C)C1=NCCN1c1ccc(N2C[C@H](CNC(=O)c3ccc(Cl)s3)OC2=O)cc1` [Compound 136] were, in that order, 1.78 nM, 0.10 and 31%.
`CN1CCN=C1c1ccc(N2C[C@H](CNC(=O)c3ccc(Br)s3)OC2=O)cc1` [Compound 108, 5-bromothiophene-2-carboxylic acid {(S)-3-[4-(1-methyl-4,5-dihydro-1H-imidazol-2-yl)-phenyl]-2-oxo-oxazolidin-5-ylmethyl}-amide]: in test [1], the Ki is 2.42 nM. This compound gave a PT in test [2] of 0.03. This compound also gave an APTT in test [4] of 0.15. In test [3], the “% Inhibition (of thrombus formation)” value came out at 30%.
Turning to `O=C(NC[C@H]1CN(c2ccc(N3CCN=C3c3cccc(Cl)c3)cc2)C(=O)O1)c1ccc(Cl)s1` [Compound 133], the Ki in test [1] was 1.21 nM. The same compound gave a PT in test [2] of 0.26. Further, the “% Inhibition (of thrombus formation)” value in test [3] was 44%.
In the case of `O=C(NC[C@H]1CN(c2ccc(C3=NCCCN3)cc2)C(=O)O1)c1ccc(Cl)s1` [Compound 106, 5-chlorothiophene-2-carboxylic acid {(S)-2-oxo-3-[4-(1,4,5,6-tetrahydropyrimidine-2-yl)-phenyl]-oxazolidin-5-ylmethyl}-amide], in test [1], the Ki was 13.1 nM. The same compound had a PT in test [2] of 0.09. This compound gave an APTT in test [4] of 0.55. For the same compound, the “% Inhibition (of thrombus formation)” value in test [3] is listed as 0%.
`Cc1csc(C2=NCCN2c2ccc(N3C[C@H](CNC(=O)c4ccc(Cl)s4)OC3=O)cc2)n1` [Compound 130]: the inhibition constant (Ki) in test [1] was 8.6 nM. Moreover, in test [2], the PT is listed as 0.94. For the same compound, in test [3], the “% Inhibition (of thrombus formation)” value came out at 15%.
For `O=C(NC[C@H]1CN(c2ccc(N3CCN=C3c3ccc(Cl)s3)cc2)C(=O)O1)c1ccc(Cl)s1` [Compound 132], in test [1], the Ki is 1.09 nM. In test [2], this compound registered a PT of 0.29. The same compound registered an APTT in test [4] of 0.88. Also, the “% Inhibition (of thrombus formation)” value in test [3] worked out at 60%.
As to `CC(C)=CC1=NCCN1c1ccc(N2C[C@H](CNC(=O)c3ccc(Cl)s3)OC2=O)cc1` [Compound 121], the Ki in test [1] is 1.81 nM. The compound further yielded a PT in test [2] of 0.06. Besides, the “% Inhibition (of thrombus formation)” value in test [3] is 35%.
As to `COC(=O)C1(C2=NCCN2c2ccc(N3C[C@H](CNC(=O)c4ccc(Cl)s4)OC3=O)cc2)CC1` [Compound 135], in test [1], the Ki was 31.5 nM. The same compound yielded a PT in test [2] of 0.15. The compound also showed an APTT in test [4] of 1.34. Also, the “% Inhibition (of thrombus formation)” value in test [3] came out at 62%.
On to `O=C(NC[C@H]1CN(c2ccc(N3CCN=C3c3ccco3)cc2)C(=O)O1)c1ccc(Br)s1` [Compound 139], for which the Ki in test [1] was 1.47 nM. In test [2], the PT is reported as 0.07. This compound gave an APTT in test [4] of 0.47. Moreover, the “% Inhibition (of thrombus formation)” value in test [3] was 60%.
Consider `CCC1=NCCCN1c1ccc(N2C[C@H](CNC(=O)c3ccc(Cl)s3)OC2=O)cc1` [Compound 142], for which the Ki in test [1] is 2.52 nM. The compound also showed a PT in test [2] of 0.04. Moreover, the APTT in test [4] came to 0.17. The “% Inhibition (of thrombus formation)” value in test [3] amounted to 47%.
Turning to `O=C(NC[C@H]1CN(c2ccc(N3CCN=C3c3ccccn3)cc2)C(=O)O1)c1ccc(Cl)s1` [Compound 128], in test [1], the Ki was 13.9 nM. In test [2], this compound had a PT of 0.95. Besides, the “% Inhibition (of thrombus formation)” value in test [3] stood at 22%.
Consider `O=C(NC[C@H]1CN(c2ccc(N3C=NCC3)cc2)C(=O)O1)c1ccc(Cl)s1` [Compound 115], for which the Ki in test [1] was 1.29 nM. For the same compound, the PT in test [2] was 0.34. The same compound showed an APTT in test [4] of 2.61.
Regarding `O=C(NC[C@H]1CN(c2ccc(N3CCN=C3c3ccc(Cl)s3)cc2)C(=O)O1)c1ccc(Br)s1` [Compound 140], in test [1], the Ki was 2.63 nM. This compound also registered a PT in test [2] of 0.24. Further, the “% Inhibition (of thrombus formation)” value in test [3] was 40%.
Regarding `CCN1CCN=C1c1ccc(N2C[C@H](CNC(=O)c3ccc(Br)s3)OC2=O)cc1` [Compound 109, 5-bromothiophene-2-carboxylic acid {(S)-3-[4-(1-ethyl-4,5-dihydro-1H-imidazol-2-yl)-phenyl]-2-oxo-oxazolidin-5-ylmethyl}-amide], the inhibition constant Ki in test [1] is 4.67 nM. Further, the “% Inhibition (of thrombus formation)” value in test [3] is given as 26%.
`O=C(NC[C@H]1CN(c2ccc(N3CCN=C3c3ccc(C(F)(F)F)cc3)cc2)C(=O)O1)c1ccc(Cl)s1` [Compound 134]: the Ki in test [1] was 4.01 nM. The compound further had a PT in test [2] of 0.36. Further, in test [3], the “% Inhibition (of thrombus formation)” value amounted to 4%.
Taken in the same sequence, the figures for `O=C(NC[C@H]1CN(c2ccc(N3CCN=C3c3cccnc3)cc2)C(=O)O1)c1ccc(Cl)s1` [Compound 127] were 6.14 nM, 0.12 and 27%.
Regarding `O=C(NC[C@H]1CN(c2ccc(N3CCN=C3C3CCC3)cc2)C(=O)O1)c1ccc(Cl)s1` [Compound 118], the Ki in test [1] is 69.9 nM. This compound also yielded a PT in test [2] of 0.58.
Consider `O=C(NC[C@H]1CN(c2ccc(N3CCN=C3C3CCOC3)cc2)C(=O)O1)c1ccc(Cl)s1` (stereo partly drawn) [Compound 125], for which the inhibition constant (Ki) in test [1] is 2.33 nM. For the same compound, the PT in test [2] is 0.05. Further, in test [3], the “% Inhibition (of thrombus formation)” value is reported as 42%.
